Drawing on the METLIN SMRT retention time set (Domingo-Almenara et al. 2019), this text covers RP-LC retention time for 80 compounds.

The data set in a line: gradient 5% acetonitrile 3 min, to 50% in 2 min, to 85% in 15 min, held 3 min, 100 µL/min. Particulars: column: Zorbax Extend-C18 2.1 x 50 mm; eluents: water / acetonitrile, 0.1% formic acid. The procedure, abridged: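 Mixtures of ~100 pure standards were chromatographed on a Zorbax Extend-C18 column (2.1 × 50 mm, 1.8 μm) at 100 μL/min using water and acetonitrile, each with 0.1% formic acid. Detection used a quadrupole time-of-flight mass spectrometer in positive and negative ionization mode, and data collection spanned 3 months. Retention time was obtained from adduct peaks picked computationally and each checked manually.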
`CCCNC(=O)N(C)CCc1noc(COc2ccc(Cl)cc2)n1` had an RP-LC retention time of 833 s.

In turn, `CC1(C(=O)NC2CCN(c3cc(N4CCOCC4)cnn3)C2)CCCCC1` (stereo not given) had an RP-LC retention time of 569 s.

The compound `Cc1ncc2c(SCC(=O)NCc3ccc(F)cc3F)ncnc2n1` returned an RP-LC retention time of 579 s.

Take `CNC(=O)c1cn(-c2ccc(S(=O)(=O)N3CCCC3)cn2)cn1`: the RP-LC retention time came to 622 s.

As to `CCC(CO)NC(=O)C(=O)NCCC1=CCCCC1` (stereo not given), the RP-LC retention time was found to be 724 s.

As to `Cc1cc(C)n2nc(CN(C(=O)c3cccs3)c3ccc(F)cc3)nc2n1`, the RP-LC retention time was found to be 779 s.

Compound `O=C(NCc1ccccn1)c1ccc(-c2nc3cccnc3n(C3CCCC3)c2=O)cc1` showed an RP-LC retention time of 778 s.

`CCOC(=O)c1[nH]c(C)c(CCC(=O)N2CCC(C(=O)NCc3cccc(OC)c3)CC2)c1C` had an RP-LC retention time of 773 s.

Regarding `Cc1ccc(CNC(=O)C2(C)CCCN(C(=O)Nc3ccc(C)c(Cl)c3)C2)cc1` (stereo not given), the RP-LC retention time came to 1110 s.

Compound `O=S(=O)(c1cccc(F)c1)N1CC(F)(F)C[C@H]1CN1CCc2ccccc2C1` displayed an RP-LC retention time of 733 s.

For `Cc1ccc(-c2nc(NCc3cccnc3)ncc2C(=O)O)cc1`, the RP-LC retention time came out at 587 s.

`Cc1[nH]c(C(=O)N2CCC(CC(=O)NCc3ccco3)CC2)c(C)c1C(=O)OC(C)C` returned an RP-LC retention time of 765 s.

In turn, `O=S(=O)(c1ccccc1)N1CCC(c2noc(-c3ccc(Cl)cc3)n2)CC1` came in with an RP-LC retention time of 1170 s.

`CS(=O)(=O)N1CC[C@H]2CN(C(=O)c3ccc4ncccc4c3)C[C@@]2(CF)C1` registered an RP-LC retention time of 607 s.

Consider `COC(=O)CNC(=O)N1CCCC1c1ccc(OC)cc1` (stereo not given), for which the RP-LC retention time came out at 678 s.

As for `CCOC(=O)c1noc2nc(C)nc(NCCCN(C)c3ccccc3)c12`, the RP-LC retention time was found to be 897 s.

Consider `CCOc1cccc(-c2noc(Cn3c(=O)n(Cc4ccccc4)c(=O)c4sccc43)n2)c1`, for which the RP-LC retention time was 1160 s.

For the compound `CCOC(=O)C1=C(CN2CCN(C3CCCCC3)CC2)NC(=O)NC1c1ccccc1` (stereo not given), the RP-LC retention time was 658 s.

In turn, `CC(C)OCCCNC(=O)C(=O)Nc1ccc(C(C)C)cc1` came in with an RP-LC retention time of 983 s.

For the compound `Cc1cccc(-c2c3c(=O)n(C)c(=O)n(C)c3c3n2CCOC3c2ccco2)c1` (stereo not given), the RP-LC retention time is 934 s.

On to `O=C(CCc1ccc2cc[nH]c2c1)N1CCN(c2ccc(Cl)cc2)CC1`, for which the RP-LC retention time was 996 s.

In turn, `Cc1cccc(Sc2nccnc2N2CCCC(C(=O)NCc3ccc(C)o3)C2)c1` (stereo not given) yielded an RP-LC retention time of 1060 s.

With `Cc1noc(C)c1-c1ccc(S(=O)(=O)NCCC(C)C)cc1`, the RP-LC retention time was determined as 954 s.

Compound `Cc1nc(-c2ccc(NC(=O)N3CCN(c4ccc(F)cc4)CC3)cc2)no1` returned an RP-LC retention time of 859 s.

Regarding `O=C(NC1CC1)c1cccc2c1CCN2C(=O)c1ccc(F)cc1`, the RP-LC retention time was 739 s.

In turn, `Cc1cc(=O)n(CC(=O)NCc2ccc(F)cc2F)c(N)n1` had an RP-LC retention time of 596 s.

Turning to `Cc1ccn2c(NC(=O)c3ccc([N+](=O)[O-])cc3)c(-c3ccc(F)cc3)nc2c1`, the RP-LC retention time was 684 s.

Compound `O=C(Cc1csc(-n2cccc2)n1)Nc1ccc(-n2cnnn2)cc1` showed an RP-LC retention time of 731 s.

In turn, `CCN1C(=O)c2cccnc2Sc2cc(CNC(=O)Cc3ccc(F)cc3)ccc21` displayed an RP-LC retention time of 761 s.

In turn, `Cc1ccc(C(=O)NCc2nn(C)c3ccccc23)c(C)c1` yielded an RP-LC retention time of 857 s.

`Cc1ccc(C(=O)NCCc2cn(C)c3ncccc23)cc1F`: the RP-LC retention time amounted to 720 s.

As for `COc1ccc(S(=O)(=O)N2CCCC(C(=O)Nc3ccc4c(c3)OCO4)C2)cc1OC` (stereo not given), the RP-LC retention time amounted to 838 s.

`O=C(CSc1ncc(CO)n1CC(=O)NC1CC1)Nc1ccc(F)cc1F` returned an RP-LC retention time of 565 s.

Compound `COc1cc(OC)cc(C(=O)Nc2ccc(N3CCN(C4CCCCC4)C3=O)nc2)c1` came in with an RP-LC retention time of 889 s.

In the case of `Fc1ccccc1-c1noc(-c2nc(C3CC3)no2)n1`, the RP-LC retention time was 1050 s.

In turn, `CCOC(=O)c1ccc(NC(=O)N2CCC(CN3CCOCC3)CC2)cc1` yielded an RP-LC retention time of 610 s.

Take `Cc1cc(C)c(C)c(S(=O)(=O)Nc2ccc(C(=O)NCc3ccccn3)cc2)c1C`: the RP-LC retention time was determined as 630 s.

The compound `COc1ccc(N2CCN(c3cc(SCC(=O)Nc4ccccc4OC)ncn3)CC2)cc1` yielded an RP-LC retention time of 1040 s.

`COc1ccc(CNC(=O)CCc2conc2-c2ccc(F)cc2)cc1` yielded an RP-LC retention time of 860 s.

For `Cc1ccc(S(=O)(=O)N2CCc3nc(-c4ccccc4)ncc3C2)c(C)c1`, the RP-LC retention time came to 1170 s.

Compound `CSc1ccc(CNC(=O)c2ccc3c(c2)NC(=O)C2CCCCN32)cc1` (stereo not given) showed an RP-LC retention time of 850 s.

Turning to `CN(C)c1cccc(C(=O)N2CCCN(c3cc(-c4ccc5c(c4)OCO5)[nH]n3)CC2)c1`, the RP-LC retention time amounted to 680 s.

As for `N#Cc1cccc(NC(=O)N2CCCC2c2nc(-c3ccc(F)cc3F)no2)c1` (stereo not given), the RP-LC retention time turned out to be 930 s.

`COCc1noc([C@@H]2CN(Cc3cccc(OC)n3)C[C@H]2COC)n1`: the RP-LC retention time came to 612 s.

`CCc1ccc2[nH]c3c(c(=O)c2c1)CN(CC(=O)NCc1cccc(Cl)c1)CC3` showed an RP-LC retention time of 642 s.

`O=C(Cc1ccc2c(c1)OCO2)Nc1ccc2scnc2c1` had an RP-LC retention time of 702 s.

On to `CCn1nnc2cc(-c3noc(C4CC(=O)N(c5cccc(Cl)c5)C4)n3)ccc21` (stereo not given), for which the RP-LC retention time turned out to be 809 s.

The compound `O=C(c1ccc(-c2cncnc2)nc1)N1CCN(c2ccc(Cl)cc2)CC1` showed an RP-LC retention time of 796 s.

Compound `O=C(NCc1ccco1)c1cccc2c1CCN2C(=O)c1ccc(F)cc1` registered an RP-LC retention time of 836 s.

Compound `Cc1cc(C)n(-c2ccnc(N3CCC(C(=O)N4CCc5ccccc5C4)CC3)n2)n1` had an RP-LC retention time of 935 s.

The compound `COc1ccc(OC)c(CN2CCCC(OCc3noc(-c4ccoc4)n3)C2)c1` (stereo not given) had an RP-LC retention time of 702 s.

`Cc1ccc(N2CN(CCC(C)C)S(=O)(=O)c3cccnc32)cc1`: the RP-LC retention time was 1150 s.

For the compound `CCCC(=O)N1CCC(C(=O)Nc2ccc(OCC)cc2)CC1`, the RP-LC retention time was 718 s.

The compound `CCCN(C)C(=O)COc1ccc(NC(=O)C2CC2)cn1` returned an RP-LC retention time of 666 s.

Take `CCCN(C)c1nccn2c(=O)n(CC(=O)Nc3cccc(Br)c3)nc12`: the RP-LC retention time is 730 s.

Compound `Cc1ccc(NC(=O)Cn2c(C(C)C)nc3c(c2=O)CCN(Cc2ccccc2)C3)cc1F` showed an RP-LC retention time of 740 s.

`Cc1nn(-c2ccc(N3CCCCC3)nn2)c(C)c1CCC(=O)NCCCc1ccco1`: the RP-LC retention time was 665 s.

`CCn1cc(-c2nc(C)c(C(=O)NCc3ccc4c(c3)OCO4)s2)c2cccnc21`: the RP-LC retention time worked out at 925 s.

Compound `O=C(CN1CCN(C(=O)CCc2ccccc2)CC1)c1cccs1` showed an RP-LC retention time of 550 s.

`Cc1cccc(NS(=O)(=O)c2cc3n(c2)CCN(CC(C)C)C3=O)c1C` had an RP-LC retention time of 852 s.

Regarding `CCc1nc2cc(-c3noc(COc4ccccc4)n3)ccc2o1`, the RP-LC retention time was determined as 1060 s.

In turn, `O=C(c1cccs1)N1CCC2(CC1)NC(=O)N(Cc1cccc(Cl)c1)C2=O` displayed an RP-LC retention time of 810 s.

For `Cc1c(-c2noc(-c3ccc4c(c3)OCO4)n2)nnn1Cc1ccccc1`, the RP-LC retention time came to 1010 s.

For `Cc1nn(CC(=O)NCCc2ccco2)c(=O)c2c(-n3cccc3)n(-c3ccc(Cl)cc3)nc12`, the RP-LC retention time is 973 s.

With `O=C(c1cccc(Cl)c1)N1CCC(n2c(-c3ccoc3)nc3cccnc32)C1` (stereo not given), the RP-LC retention time amounted to 776 s.

Regarding `Cc1nc2cc(-c3noc(COc4ccccc4)n3)ccc2o1`, the RP-LC retention time stood at 1030 s.

In turn, `O=C([C@@H]1C[C@H](F)CN1C(=O)c1ccccc1Cl)N1CCOCC1` displayed an RP-LC retention time of 619 s.

Compound `CCCCN1N=C(C(=O)N2CCC(C)CC2)S(=O)(=O)c2ccccc21` registered an RP-LC retention time of 1030 s.

For the compound `COc1ccc(Br)cc1CNC(=O)C1CCN(c2ccc3nnc(C)n3n2)CC1`, the RP-LC retention time turned out to be 797 s.

Compound `COc1ccc(OC)c(CNC(=O)C2CCCN(c3cnc4nccnc4c3)C2)c1` (stereo not given) showed an RP-LC retention time of 710 s.

As for `O=C1CSc2ccc(S(=O)(=O)N3CCN(c4ccccn4)CC3)cc2N1`, the RP-LC retention time worked out at 604 s.

In the case of `Cc1cc2n(n1)CCCN2C(=O)CCC(=O)N1CCN(c2cccc(Cl)c2)CC1`, the RP-LC retention time worked out at 778 s.

As for `Cc1ccc(CNC(=O)C2CCN(c3cnc(N4CCCC4)nc3)CC2)cc1`, the RP-LC retention time is 680 s.

The compound `CN(C)CCn1cc(C(=O)NCc2ccco2)ccc1=O` registered an RP-LC retention time of 590 s.

Compound `COc1ccc2c(CCNC(=O)Nc3ccccc3)c[nH]c2c1` showed an RP-LC retention time of 791 s.

`Cc1ccc2nc(-c3cccc(S(=O)(=O)N4CC(C)OC(C)C4)c3)cn2c1` (stereo not given) returned an RP-LC retention time of 640 s.

For `Cc1ccc(S(=O)(=O)N2CCC(CCNC(=O)NC3CCCCC3)CC2)cc1`, the RP-LC retention time stood at 905 s.

`Cn1c(NCCN(CCO)CCCc2ccc([N+](=O)[O-])cc2)cc(=O)n(C)c1=O` gave an RP-LC retention time of 610 s.

Compound `Cc1cccc(CNC(=O)C2(c3ccc(NS(C)(=O)=O)cc3)CCCCC2)c1` showed an RP-LC retention time of 921 s.

`O=C(C1CCCC1)N1CCC(c2noc(-c3ccncc3)n2)C1` (stereo not given) came in with an RP-LC retention time of 863 s.
